Results on 15 molecules are retold here after ChEMBL document CHEMBL4417631, “Oral peptide inhibitors of interleukin-23 receptor and their use to treat inflammatory bowel diseases” (2017).

pIC50: −log10 of the molar value. *1 amine or outer side, *2 acyl side, *3 side chain or, on linkers, in order; H or OH if unused. Where a SMILES comes first, the peptide text is derived from it. Bridges are numbered along the chain shown (N, C = ends). [ ]: non-standard residue; d: D form. Abu(4-yl) = O=C([C@H](CC[*:3])N[*:1])[*:2]; 2Nal = N[C@@H](Cc1ccc2ccccc2c1)C(=O)O; AEF = NCCOc1ccc(C[C@H](N)C(=O)O)cc1; αMeK = C[C@](N)(CCCCN)C(=O)O

A short description of data set [1]: Half life in simulated intestinal fluid at 20 uM by LC-MS/MS analysis. It is filed as ADME.
For data set [2], the target named is T1, Interleukin-23 receptor (Homo sapiens, UniProt Q5VWK5).
T1 sequence (Q5VWK5 whole entry): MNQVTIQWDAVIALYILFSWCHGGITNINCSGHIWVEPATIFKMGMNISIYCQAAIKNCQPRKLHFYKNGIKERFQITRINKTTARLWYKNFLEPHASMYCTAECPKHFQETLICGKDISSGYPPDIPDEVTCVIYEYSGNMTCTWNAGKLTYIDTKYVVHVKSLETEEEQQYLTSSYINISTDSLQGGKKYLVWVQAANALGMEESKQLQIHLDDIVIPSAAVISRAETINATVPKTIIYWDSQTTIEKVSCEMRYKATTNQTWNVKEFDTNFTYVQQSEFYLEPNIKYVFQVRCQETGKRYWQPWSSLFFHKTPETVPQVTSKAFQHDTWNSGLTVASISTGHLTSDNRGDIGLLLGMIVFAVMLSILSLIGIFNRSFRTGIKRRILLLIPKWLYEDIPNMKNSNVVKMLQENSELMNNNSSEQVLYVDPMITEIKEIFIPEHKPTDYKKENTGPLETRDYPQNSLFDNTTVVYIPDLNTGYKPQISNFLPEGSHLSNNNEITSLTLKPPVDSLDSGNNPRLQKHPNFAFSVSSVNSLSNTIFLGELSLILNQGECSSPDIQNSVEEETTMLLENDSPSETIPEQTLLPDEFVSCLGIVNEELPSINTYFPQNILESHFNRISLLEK
Kind of data set: Inhibition of interleukin-23 receptor in human DB cells assessed as reduction in IL-23-stimulated STAT3 phosphorylation incubated for 30 mins by HTRF assay. It counts as cell-based. On the technique in general: TR-FRET usually uses a lanthanide donor and a delayed reading to cut background.

Data set [3] is described as follows: Half life in simulated gastric fluid at 20 uM by LC-MS/MS analysis. It is filed as ADME.
The target of data set [4] is T1, Interleukin-23 receptor. Kind of data set: Inhibition of interleukin-23 binding to human interleukin-23 receptor incubated for 2 hrs by competitive binding ELISA. In general terms: ELISA stands for enzyme-linked immunosorbent assay.

`CC(=O)NCCOc1ccc(C[C@H](NC(=O)[C@@H](NC(=O)[C@H](CCC(N)=O)NC(=O)[C@H](Cc2c[nH]c3ccccc23)NC(=O)[C@@H](NC(=O)[C@H](CCC(N)=O)NC(=O)[C@@H](NC(C)=O)C(C)(C)S)[C@@H](C)O)C(C)(C)S)C(=O)N[C@@H](Cc2ccc3ccccc3c2)C(=O)NC(C)(C)C(=O)N[C@@H](CCC(=O)O)C(=O)N[C@@H](CC(N)=O)C(=O)N[C@@H](CC(N)=O)C(N)=O)cc1`: the half-life at 20 µM in data set [1] and in data set [3] was over 6 h each time. The figures for the negative-log IC50 (pIC50) on Interleukin-23 receptor [2] and at Interleukin-23 receptor [4] were over 8.00 and 7.60 to 8.00, respectively.

Consider `CC(=O)NCCCC[C@H](NC(=O)[C@](C)(CCCCNC(C)=O)NC(=O)[C@H](Cc1ccc2ccccc2c1)NC(=O)[C@H](Cc1ccc(OCCNC(C)=O)cc1)NC(=O)[C@@H](NC(=O)[C@H](CCC(N)=O)NC(=O)[C@H](Cc1c[nH]c2ccccc12)NC(=O)[C@@H](NC(=O)[C@H](CCC(N)=O)NC(=O)[C@@H](NC(C)=O)C(C)(C)S)[C@@H](C)O)C(C)(C)S)C(=O)N[C@@H](CC(N)=O)C(=O)N[C@@H](CC(N)=O)C(N)=O`, for which the half-life at 20 µM in data set [1] and in data set [3] was over 6 h in each case. In addition, the pIC50 on Interleukin-23 receptor [2] and on Interleukin-23 receptor [4] was over 8.00 each time.

`CC(=O)NCCCC[C@H](NC(=O)[C@](C)(CCCCNC(C)=O)NC(=O)[C@H](Cc1ccc2ccccc2c1)NC(=O)[C@H](Cc1ccc(OCCNC(C)=O)cc1)NC(=O)[C@@H](NC(=O)[C@H](CCC(N)=O)NC(=O)[C@H](Cc1c[nH]c2ccccc12)NC(=O)[C@@H](NC(=O)[C@H](CCC(N)=O)NC(=O)[C@@H](NC(C)=O)C(C)(C)S)[C@@H](C)O)C(C)(C)S)C(=O)N[C@@H](CC(N)=O)C(=O)NCC(N)=O`: the half-life at 20 µM in data set [1] and in data set [3] was over 6 h throughout. The pIC50 at Interleukin-23 receptor [2] and on Interleukin-23 receptor [4] was over 8.00 in each case.

`CC(=O)NCCCC[C@H](NC(=O)C(C)(C)NC(=O)[C@H](Cc1ccc2ccccc2c1)NC(=O)[C@H](Cc1ccc(OCCN)cc1)NC(=O)[C@@H](NC(=O)[C@H](CCC(N)=O)NC(=O)[C@H](Cc1c[nH]c2ccccc12)NC(=O)[C@@H](NC(=O)[C@H](CCC(N)=O)NC(=O)[C@@H](NC(C)=O)C(C)(C)S)[C@@H](C)O)C(C)(C)S)C(=O)N[C@@H](CC(N)=O)C(=O)N[C@@H](CC(N)=O)C(N)=O`: the half-life at 20 µM in data set [1] is 2 to 3 h; in data set [3] it was 3 to 6 h. In addition, the pIC50 at Interleukin-23 receptor [2] and at Interleukin-23 receptor [4] was over 8.00 in each case.

On to `CC(=O)NCCCC[C@H](NC(=O)C(C)(C)NC(=O)[C@H](Cc1ccc2ccccc2c1)NC(=O)[C@H](Cc1ccc(OCCNC(C)=O)cc1)NC(=O)[C@@H](NC(=O)[C@H](CCC(N)=O)NC(=O)[C@H](Cc1c[nH]c2ccccc12)NC(=O)[C@@H](NC(=O)[C@H](CCC(N)=O)NC(=O)[C@@H](NC(C)=O)C(C)(C)S)[C@@H](C)O)C(C)(C)S)C(=O)N[C@@H](CC(N)=O)C(=O)N[C@@H](CC(N)=O)C(N)=O`, for which the half-life at 20 µM in data set [1] and in data set [3] was over 6 h in each case. In addition, the negative-log IC50 (pIC50) on Interleukin-23 receptor [2] and at Interleukin-23 receptor [4] was over 8.00 each time.

As to `CC(=O)N[C@H]1CCSC[C@@H](C(=O)N[C@@H](Cc2ccc(OCCN)cc2)C(=O)N[C@@H](Cc2ccc3ccccc3c2)C(=O)NC(C)(C)C(=O)N[C@@H](CCC(=O)O)C(=O)N[C@@H](CC(N)=O)C(=O)NCC(N)=O)NC(=O)[C@H](CCC(N)=O)NC(=O)[C@H](Cc2c[nH]c3ccccc23)NC(=O)[C@H]([C@@H](C)O)NC(=O)[C@H](CCC(N)=O)NC1=O`, the half-life at 20 µM is under 1 h in data set [1] and 2 to 3 h in data set [3]. The pIC50 at Interleukin-23 receptor [2] and on Interleukin-23 receptor [4] was over 8.00 in each case.

In the case of `CC(=O)NCCCC[C@H](NC(=O)C(C)(C)NC(=O)[C@H](Cc1cccc2ccccc12)NC(=O)[C@H](Cc1ccc(OCCN)cc1)NC(=O)[C@@H]1CSCC[C@H](NC(C)=O)C(=O)N[C@@H](CCC(N)=O)C(=O)N[C@@H]([C@@H](C)O)C(=O)N[C@@H](Cc2c[nH]c3ccccc23)C(=O)N[C@@H](CCC(N)=O)C(=O)N1)C(=O)N[C@@H](CC(N)=O)C(=O)NCC(N)=O`, the half-life at 20 µM in data set [1] and in data set [3] was over 6 h throughout. Also, the pIC50 at Interleukin-23 receptor [2] was 7.60 to 8.00; on Interleukin-23 receptor [4], 7.00 to 7.60.

Regarding `CC(=O)N[C@H]1CCSC[C@@H](C(=O)N[C@@H](Cc2ccc(OCCN)cc2)C(=O)N[C@@H](Cc2ccc3ccccc3c2)C(=O)N[C@@](C)(CCCCN)C(=O)N[C@@H](CC(N)=O)C(=O)N[C@@H](CC(N)=O)C(=O)NCC(N)=O)NC(=O)[C@H](CCC(N)=O)NC(=O)[C@H](Cc2c[nH]c3ccccc23)NC(=O)[C@H]([C@@H](C)O)NC(=O)[C@H](CCC(N)=O)NC1=O` (Ac-[Abu(4-yl)]QTWQC[AEF][2Nal][αMeK]NNG-NH2; thioether 1-6), the half-life at 20 µM in data set [1] and in data set [3] was 3 to 6 h throughout. For the same molecule, the negative logarithm of the IC50 (pIC50) at Interleukin-23 receptor [2] and on Interleukin-23 receptor [4] was over 8.00 each time.

Regarding `CC[C@](C)(NC(=O)[C@H](Cc1ccc2ccccc2c1)NC(=O)[C@H](Cc1ccc(OCCN)cc1)NC(=O)[C@@H]1CSCC[C@H](NC(C)=O)C(=O)N[C@@H](CCC(N)=O)C(=O)N[C@@H]([C@@H](C)O)C(=O)N[C@@H](Cc2c[nH]c3ccccc23)C(=O)N[C@@H](CCC(N)=O)C(=O)N1)C(=O)N[C@@H](CCCCNC(C)=O)C(=O)N[C@@H](CC(N)=O)C(=O)NCC(N)=O`, the half-life at 20 µM in data set [1] was 1 to 2 h; in data set [3], under 1 h. Further, the pIC50 on Interleukin-23 receptor [2] and at Interleukin-23 receptor [4] was over 8.00 each time.

In the case of `CC(=O)N[C@H]1CCSC[C@@H](C(=O)N[C@@H](Cc2ccc(OCCN)cc2)C(=O)N[C@@H](Cc2ccc3ccccc3c2)C(=O)N[C@@](C)(CCCCN)C(=O)N[C@@H](CCCCNC(=O)c2ccccc2)C(=O)N[C@@H](CC(N)=O)C(=O)NCC(N)=O)NC(=O)[C@H](CCC(N)=O)NC(=O)[C@H](Cc2c[nH]c3ccccc23)NC(=O)[C@H]([C@@H](C)O)NC(=O)[C@H](CCC(N)=O)NC1=O`, the values for the half-life at 20 µM in data set [1] and in data set [3] were 3 to 6 h and over 6 h, respectively. In addition, the pIC50 on Interleukin-23 receptor [2] and at Interleukin-23 receptor [4] was over 8.00 throughout.

For the molecule `CC(=O)N[C@H]1CCSC[C@@H](C(=O)N[C@@H](Cc2ccc(OCCN)cc2)C(=O)N[C@@H](Cc2ccc3ccccc3c2)C(=O)N[C@@](C)(CCCCN)C(=O)N[C@@H](CCC(=O)O)C(=O)N[C@@H](CC(N)=O)C(=O)NCC(N)=O)NC(=O)[C@H](CCC(N)=O)NC(=O)[C@H](Cc2c[nH]c3ccccc23)NC(=O)[C@H]([C@@H](C)O)NC(=O)[C@H]([C@@H](C)O)NC1=O`, the half-life at 20 µM in data set [1] and in data set [3] was 3 to 6 h throughout. The pIC50 at Interleukin-23 receptor [2] and at Interleukin-23 receptor [4] was over 8.00 in each case.

Regarding `CC(=O)NCCOc1ccc(C[C@H](NC(=O)[C@@H](NC(=O)[C@H](CCC(N)=O)NC(=O)[C@H](Cc2c[nH]c3ccccc23)NC(=O)[C@@H](NC(=O)[C@H](CCC(N)=O)NC(=O)[C@@H](NC(C)=O)C(C)(C)S)[C@@H](C)O)C(C)(C)S)C(=O)N[C@@H](Cc2ccc3ccccc3c2)C(=O)N[C@@](C)(CC(C)C)C(=O)N[C@@H](CCC(N)=O)C(=O)N[C@@H](CC(N)=O)C(=O)N[C@@H](CC(N)=O)C(N)=O)cc1`, the half-life at 20 µM in data set [1] and in data set [3] was over 6 h in each case. For the same molecule, the pIC50 at Interleukin-23 receptor [2] and at Interleukin-23 receptor [4] was over 8.00 in each case.

Take `CC(=O)NCCCC[C@H](NC(=O)C(C)(C)NC(=O)[C@H](Cc1ccc2ccccc2c1)NC(=O)[C@H](Cc1ccc(OCCN)cc1)NC(=O)[C@@H]1CSCC[C@H](NC(C)=O)C(=O)N[C@@H](CCC(N)=O)C(=O)N[C@@H]([C@@H](C)O)C(=O)N[C@@H](Cc2c[nH]c3ccccc23)C(=O)N[C@@H](CCC(N)=O)C(=O)N1)C(=O)N[C@@H](CC(N)=O)C(=O)NCC(N)=O`: the half-life at 20 µM in data set [1] and in data set [3] was 1 to 2 h throughout. For the same molecule, the pIC50 on Interleukin-23 receptor [2] and at Interleukin-23 receptor [4] was over 8.00 each time.

As to `CC(=O)NCCCC[C@](C)(NC(=O)[C@H](Cc1ccc2ccccc2c1)NC(=O)[C@H](Cc1ccc(OCCNC(C)=O)cc1)NC(=O)[C@@H](NC(=O)[C@H](CCC(N)=O)NC(=O)[C@H](Cc1c[nH]c2ccccc12)NC(=O)[C@@H](NC(=O)[C@H](CNC(C)=O)NC(=O)[C@@H](NC(C)=O)C(C)(C)S)[C@@H](C)O)C(C)(C)S)C(=O)N[C@@H](CCC(=O)O)C(=O)N[C@@H](CC(N)=O)C(=O)NCC(N)=O`, the half-life at 20 µM in data set [1] and in data set [3] was over 6 h each time. Also, the pIC50 is over 8.00 at Interleukin-23 receptor [2] and 7.60 to 8.00 on Interleukin-23 receptor [4].

For the molecule `CC(=O)NCCCC[C@](C)(NC(=O)[C@H](Cc1ccc2ccccc2c1)NC(=O)[C@H](Cc1ccc(OCCNC(C)=O)cc1)NC(=O)[C@@H](NC(=O)[C@H](CCC(N)=O)NC(=O)[C@H](Cc1c[nH]c2ccccc12)NC(=O)[C@@H](NC(=O)[C@H](CCC(N)=O)NC(=O)[C@@H](NC(C)=O)C(C)(C)S)[C@@H](C)O)C(C)(C)S)C(=O)N[C@@H](CCC(=O)O)C(=O)N[C@@H](CC(N)=O)C(=O)N[C@@H](C)C(N)=O`, the half-life at 20 µM in data set [1] and in data set [3] was over 6 h throughout. Moreover, the pIC50 at Interleukin-23 receptor [2] was over 8.00; at Interleukin-23 receptor [4] it was 7.60 to 8.00.

Broadly, the half-life is how long it takes for the measured level to halve. Usually pIC50 stands for the IC50 on a negative log10 scale, so that one unit is a factor of ten.
